The record followed here is paper PMC12749252 (Nature Communications, 2025).

The target of one assay is GCN2 (Homo sapiens, UniProt Q9P2K8). In words: Eurofins KinaseProfiler in vitro. It is filed as biochemical.
The target in a further assay is WEE1 (Homo sapiens, UniProt P30291). The assay can be described thus: NanoBRET target engagement in HEK293 cells. Type of assay: cell-based.
Sequence of WEE1 (P30291 whole entry): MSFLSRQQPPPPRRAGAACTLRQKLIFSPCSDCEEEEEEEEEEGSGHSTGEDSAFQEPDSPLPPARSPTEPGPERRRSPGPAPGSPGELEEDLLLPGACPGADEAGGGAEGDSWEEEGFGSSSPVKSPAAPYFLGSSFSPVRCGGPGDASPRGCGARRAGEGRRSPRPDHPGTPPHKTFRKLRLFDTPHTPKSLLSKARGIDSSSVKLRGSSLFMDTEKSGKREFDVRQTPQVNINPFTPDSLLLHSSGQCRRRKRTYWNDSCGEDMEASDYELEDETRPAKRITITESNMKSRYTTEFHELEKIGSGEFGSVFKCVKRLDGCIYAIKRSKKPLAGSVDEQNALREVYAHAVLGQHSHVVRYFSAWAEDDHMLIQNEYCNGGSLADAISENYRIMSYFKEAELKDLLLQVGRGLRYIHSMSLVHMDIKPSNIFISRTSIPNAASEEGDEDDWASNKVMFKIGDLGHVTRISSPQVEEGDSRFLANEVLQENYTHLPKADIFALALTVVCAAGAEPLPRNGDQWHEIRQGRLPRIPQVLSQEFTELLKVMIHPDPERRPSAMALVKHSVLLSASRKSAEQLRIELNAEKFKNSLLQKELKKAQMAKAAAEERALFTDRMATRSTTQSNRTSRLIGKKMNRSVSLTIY

Sequence of GCN2 (Q9P2K8 whole entry): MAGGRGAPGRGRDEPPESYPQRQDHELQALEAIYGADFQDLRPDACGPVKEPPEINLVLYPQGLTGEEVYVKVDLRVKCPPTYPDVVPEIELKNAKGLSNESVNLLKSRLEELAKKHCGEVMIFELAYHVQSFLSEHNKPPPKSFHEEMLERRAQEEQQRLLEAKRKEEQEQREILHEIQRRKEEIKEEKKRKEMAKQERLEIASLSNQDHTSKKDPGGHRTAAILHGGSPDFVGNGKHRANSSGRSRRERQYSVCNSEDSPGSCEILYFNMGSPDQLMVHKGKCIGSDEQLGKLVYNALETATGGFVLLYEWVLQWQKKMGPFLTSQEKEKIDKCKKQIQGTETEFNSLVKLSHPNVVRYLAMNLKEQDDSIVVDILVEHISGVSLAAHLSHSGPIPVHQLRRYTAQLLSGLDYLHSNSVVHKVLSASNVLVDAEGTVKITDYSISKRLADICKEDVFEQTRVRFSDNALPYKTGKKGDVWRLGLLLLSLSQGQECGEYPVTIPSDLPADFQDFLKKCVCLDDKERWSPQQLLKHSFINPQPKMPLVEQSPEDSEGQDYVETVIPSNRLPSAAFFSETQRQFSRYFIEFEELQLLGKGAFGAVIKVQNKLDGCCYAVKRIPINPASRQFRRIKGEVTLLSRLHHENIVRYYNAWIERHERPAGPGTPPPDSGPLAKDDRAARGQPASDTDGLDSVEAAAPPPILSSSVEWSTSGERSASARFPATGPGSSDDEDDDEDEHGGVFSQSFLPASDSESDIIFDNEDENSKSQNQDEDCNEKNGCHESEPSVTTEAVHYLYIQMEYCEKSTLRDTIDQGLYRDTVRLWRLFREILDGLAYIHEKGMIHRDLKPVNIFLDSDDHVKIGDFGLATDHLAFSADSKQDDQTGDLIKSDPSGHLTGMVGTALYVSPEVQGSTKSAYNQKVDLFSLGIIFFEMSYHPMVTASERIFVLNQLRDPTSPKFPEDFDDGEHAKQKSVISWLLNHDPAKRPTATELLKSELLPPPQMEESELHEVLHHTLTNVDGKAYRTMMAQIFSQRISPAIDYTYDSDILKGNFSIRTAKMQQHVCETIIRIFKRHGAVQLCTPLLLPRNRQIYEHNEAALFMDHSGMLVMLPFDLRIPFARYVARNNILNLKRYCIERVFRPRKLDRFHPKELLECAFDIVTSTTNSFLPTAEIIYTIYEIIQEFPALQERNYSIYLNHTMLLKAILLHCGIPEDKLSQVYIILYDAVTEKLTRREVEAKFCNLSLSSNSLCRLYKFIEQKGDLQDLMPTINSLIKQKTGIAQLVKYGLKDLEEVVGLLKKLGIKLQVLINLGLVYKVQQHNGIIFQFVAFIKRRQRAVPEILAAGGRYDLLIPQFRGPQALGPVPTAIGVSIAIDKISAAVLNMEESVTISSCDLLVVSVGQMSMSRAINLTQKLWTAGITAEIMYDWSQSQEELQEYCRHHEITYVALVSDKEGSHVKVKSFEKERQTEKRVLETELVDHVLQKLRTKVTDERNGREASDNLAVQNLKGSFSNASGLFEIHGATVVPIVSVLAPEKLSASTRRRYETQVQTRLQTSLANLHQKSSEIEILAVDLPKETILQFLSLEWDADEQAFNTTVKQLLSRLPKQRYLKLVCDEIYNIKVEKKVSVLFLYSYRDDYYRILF

At GCN2, `C=CCn1c(=O)c2cnc(Nc3ccc(N4CCN(C)CC4)cc3)nc2n1-c1cccc(C(C)(C)O)n1` [AZD1775] gave an IC50 of 140 nM.
Turning to `Cc1cc2c(C(N)=O)c(N)n(-c3c(C)ccc(O)c3C)c2nc1C` [RP-6306], on WEE1, the “NanoBRET target engagement in HEK293 cells (only at high doses)” value is “while PKMYT1i only interacted at high doses (Fig. 5c)”.
